Laboratory results as given in patent US8383627B2, “Crystalline polymorph of doxazosin mesylate (form IV) and process for preparation thereof” (CIPLA Limited, priority 2007, dated 2013).
Structures can show the parent of a compound that is named as a salt.

Assay: Comparative intrinsic dissolution study
Format: physicochemical
Settings: for % Release of Doxazosin Mesylate: 50 mg pellet, 900 ml 0.01N HCl, 37±0.5° C., paddle 50 rpm
Description: To measure the intrinsic dissolution of the doxazosin mesylate Form IV, Form M and Form D, samples were measured to compare the influence of the different parameter settings. At appropriate time intervals, an automated sample collector removes aliquots from dissolution medium for analysis. The time interval for sampling can vary, for example, from 2 to 30 minutes, depending on the properties of the drug and dissolution medium used. Suitable dissolution equipment for these operations include LAB INDIA DISSO 2000.
A tableting mixture (50 mg) comprising solely doxazosin mesylate (i.e. with no excipients) was prepared and compressed to a pellet using a manual hand press operating at a compression pressure of 5 tones for 5 minutes.
In-vitro dissolutions studies were performed on the 50 mg pellet in a LAB INDIA DISSO 2000.
The pellet was fixed in a PFTE holder, such that only the pellet surface came into contact with the dissolution medium. The PFTE loaded holder was placed in the dissolution vessel containing 900 ml of 0.01N HCl at 37±0.5° C. Three pellets were measured for each run of the design of the experiments. Stirring was performed with a paddle rotating at 50 rpm. The dissolution was followed up to 1440 min and the concentration of active ingredient, doxazosin mesylate, dissolved in the test medium was determined by removing samples of 10 ml at the specified time.
The concentration of doxazosin mesylate was quantified by HPLC UV method at a maximum wavelength of 245 nm under conditions as specified: • Mobile Phase: 450:450:100:: Buffer:MeOH:Acetonitrile • Buffer: 0.3% v/v Diethylamine. The pH adjusted to 2.5 with orthophosphoric acid • Column: Inersil ODS 15 cm • Flow: 1.0 ml/min
The percentage of doxazosin mesylate released was plotted against time. The intrinsic dissolution rate was derived from the slope of this curve.

Structure (SMILES): COc1cc2nc(N3CCN(C(=O)C4COc5ccccc5O4)CC3)nc(N)c2cc1OC (stereo not drawn) [Form D, doxazosin mesylate]
- % Release of Doxazosin Mesylate (5 minutes, listed as Form -D): 1.8%
- % Release of Doxazosin Mesylate (15 minutes, listed as Form -D): 3.5%
- % Release of Doxazosin Mesylate (30 minutes, listed as Form -D): 6.1%
- % Release of Doxazosin Mesylate (45 minutes, listed as Form -D): 8.8%
- % Release of Doxazosin Mesylate (60 minutes, listed as Form -D): 10.7%
- % Release of Doxazosin Mesylate (120 minutes, listed as Form -D): 18.5%
- % Release of Doxazosin Mesylate (180 minutes, listed as Form -D): 27.0%
- % Release of Doxazosin Mesylate (240 minutes, listed as Form -D): 32.3%
- % Release of Doxazosin Mesylate (360 minutes, listed as Form -D): 51.0%
- % Release of Doxazosin Mesylate (480 minutes, listed as Form -D): 65.1%
- % Release of Doxazosin Mesylate (600 minutes, listed as Form -D): 72.7%
- % Release of Doxazosin Mesylate (720 minutes): 74.5%
- % Release of Doxazosin Mesylate (720 minutes, listed as Form -D): 74.5%
- % Release of Doxazosin Mesylate (900 minutes, listed as Form -D): 76.0%
- % Release of Doxazosin Mesylate (1080 minutes, listed as Form -D): 75.8%
- % Release of Doxazosin Mesylate (1260 minutes, listed as Form -D): 75.6%

Structure (SMILES): COc1cc2nc(N3CCN(C(=O)C4COc5ccccc5O4)CC3)nc(N)c2cc1OC (stereo not drawn) [Form IV, 1-(4-amino-6,7-dimethoxy-2-quinazolinyl)-4-(2,3-dihydro-1,4-benzodioxin-2-yl)carbonyl piperazine monomethanesulfonate]
- % Release of Doxazosin Mesylate (5 minutes, monomethanesulfonate): 1.6%
- % Release of Doxazosin Mesylate (15 minutes, monomethanesulfonate): 3.6%
- % Release of Doxazosin Mesylate (30 minutes, monomethanesulfonate): 6.6%
- % Release of Doxazosin Mesylate (45 minutes, monomethanesulfonate): 9.5%
- % Release of Doxazosin Mesylate (60 minutes, monomethanesulfonate): 12.0%
- % Release of Doxazosin Mesylate (120 minutes, monomethanesulfonate): 21.8%
- % Release of Doxazosin Mesylate (180 minutes, monomethanesulfonate): 34.5%
- % Release of Doxazosin Mesylate (240 minutes, monomethanesulfonate): 45.7%
- % Release of Doxazosin Mesylate (360 minutes, monomethanesulfonate): 66.2%
- % Release of Doxazosin Mesylate (480 minutes, monomethanesulfonate): 77.4%
- % Release of Doxazosin Mesylate (600 minutes, monomethanesulfonate): 80.0%
- % Release of Doxazosin Mesylate (720 minutes, listed as Form -IV, monomethanesulfonate): 81.1%
- % Release of Doxazosin Mesylate (720 minutes, monomethanesulfonate): 81.1%
- % Release of Doxazosin Mesylate (900 minutes, monomethanesulfonate): 79.7%
- % Release of Doxazosin Mesylate (1080 minutes, monomethanesulfonate): 79.2%
- % Release of Doxazosin Mesylate (1260 minutes, monomethanesulfonate): 77.6%
- higher dissolution rate compared with known Form D (at 30 minutes): 8%
- higher dissolution rate compared with known Form D (at 60 minutes): 10.84%
- higher dissolution rate compared with known Form D (at 120 minutes): 15.14%
- higher dissolution rate compared with known Form D (at 180 minutes): 21.74%
- higher dissolution rate compared with known Form D (at 240 minutes): 29.33%
- rate of dissolution (compared with known forms, Form M and Form D): superior rate of dissolution

Structure (SMILES): COc1cc2nc(N3CCN(C(=O)C4COc5ccccc5O4)CC3)nc(N)c2cc1OC (stereo not drawn) [Form M, doxazosin mesylate]
- % Release of Doxazosin Mesylate (5 minutes, listed as Form -M): 1.5%
- % Release of Doxazosin Mesylate (15 minutes, listed as Form -M): 2.8%
- % Release of Doxazosin Mesylate (30 minutes, listed as Form -M): 5.0%
- % Release of Doxazosin Mesylate (45 minutes, listed as Form -M): 6.5%
- % Release of Doxazosin Mesylate (60 minutes, listed as Form -M): 8.1%
- % Release of Doxazosin Mesylate (120 minutes, listed as Form -M): 14.1%
- % Release of Doxazosin Mesylate (180 minutes, listed as Form -M): 20.8%
- % Release of Doxazosin Mesylate (240 minutes, listed as Form -M): 26.5%
- % Release of Doxazosin Mesylate (360 minutes, listed as Form -M): 39.5%
- % Release of Doxazosin Mesylate (480 minutes, listed as Form -M): 50.2%
- % Release of Doxazosin Mesylate (600 minutes, listed as Form -M): 58.8%
- % Release of Doxazosin Mesylate (720 minutes, listed as Form -M): 67.0%
- % Release of Doxazosin Mesylate (720 minutes, listed as form M): 67.0%
- % Release of Doxazosin Mesylate (900 minutes, listed as Form -M): 74.9%
- % Release of Doxazosin Mesylate (1080 minutes, listed as Form -M): 78.0%
- % Release of Doxazosin Mesylate (1260 minutes, listed as Form -M): 79.5%
